Measured values taken from PubChem BioAssay (NCI).
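Briefly, cells in 96-well plates were exposed to five compound concentrations for 48 h, and endpoints were estimated by linear interpolation. TGI marks complete inhibition of growth.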

Columns and labels:
Assay in all cases: DTP human tumour cell line panel, 48 h
786-0 renal = tested on: 786-0 renal
A498 renal = tested on: A498 renal
A549 NSCLC = tested on: A549 NSCLC
ACHN renal = tested on: ACHN renal
BT-549 breast = tested on: BT-549 breast
CAKI-1 renal = tested on: CAKI-1 renal
COLO 205 colon = tested on: COLO 205 colon
DU-145 prostate = tested on: DU-145 prostate
EKVX NSCLC = tested on: EKVX NSCLC
HCC-2998 colon = tested on: HCC-2998 colon
HCT-116 colon = tested on: HCT-116 colon
HCT-15 colon = tested on: HCT-15 colon
HOP-62 NSCLC = tested on: HOP-62 NSCLC
HOP-92 NSCLC = tested on: HOP-92 NSCLC
HS 578T breast = tested on: HS 578T breast
HT29 colon = tested on: HT29 colon
IGROV1 ovarian = tested on: IGROV1 ovarian
K-562 leukemia = tested on: K-562 leukemia
KM12 colon = tested on: KM12 colon
LOX IMVI melanoma = tested on: LOX IMVI melanoma
M14 melanoma = tested on: M14 melanoma
MALME-3M melanoma = tested on: MALME-3M melanoma
MCF7 breast = tested on: MCF7 breast
MDA-MB-231 breast = tested on: MDA-MB-231 breast
MDA-MB-435 = tested on: MDA-MB-435
MDA-N = tested on: MDA-N
NCI-H226 lung = tested on: NCI-H226 lung
NCI-H23 lung = tested on: NCI-H23 lung
NCI-H460 lung = tested on: NCI-H460 lung
NCI/ADR-RES ovarian = tested on: NCI/ADR-RES ovarian
OVCAR-3 ovarian = tested on: OVCAR-3 ovarian
OVCAR-4 ovarian = tested on: OVCAR-4 ovarian
OVCAR-5 ovarian = tested on: OVCAR-5 ovarian
OVCAR-8 ovarian = tested on: OVCAR-8 ovarian
PC-3 prostate = tested on: PC-3 prostate
RPMI-8226 leukemia = tested on: RPMI-8226 leukemia
SF-268 CNS = tested on: SF-268 CNS
SF-295 CNS = tested on: SF-295 CNS
SK-MEL-2 melanoma = tested on: SK-MEL-2 melanoma
SK-OV-3 ovarian = tested on: SK-OV-3 ovarian
SN12C renal = tested on: SN12C renal
SNB-19 CNS = tested on: SNB-19 CNS
SNB-75 CNS = tested on: SNB-75 CNS
T-47D breast = tested on: T-47D breast
TK-10 renal = tested on: TK-10 renal
U251 CNS = tested on: U251 CNS
UO-31 renal = tested on: UO-31 renal
CCRF-CEM leukemia = tested on: CCRF-CEM leukemia
HL-60(TB) leukemia = tested on: HL-60(TB) leukemia
MOLT-4 leukemia = tested on: MOLT-4 leukemia
NCI-H522 lung = tested on: NCI-H522 lung
RXF 393 renal = tested on: RXF 393 renal
SF-539 CNS = tested on: SF-539 CNS
SK-MEL-28 melanoma = tested on: SK-MEL-28 melanoma
SK-MEL-5 melanoma = tested on: SK-MEL-5 melanoma
SW-620 colon = tested on: SW-620 colon
UACC-257 melanoma = tested on: UACC-257 melanoma
UACC-62 melanoma = tested on: UACC-62 melanoma

Measured: TGI

O=c1ccn(C2OC(CN(O)CCC3C(O)C(CO)OC3n3ccc(=O)[nH]c3=O)C(O)C2O)c(=O)[nH]1 (centres undefined)
not listed: CCRF-CEM leukemia | HL-60(TB) leukemia | MOLT-4 leukemia | NCI-H522 lung | RXF 393 renal | SF-539 CNS | SK-MEL-28 melanoma | SK-MEL-5 melanoma | SW-620 colon | UACC-257 melanoma | UACC-62 melanoma
> 100 µM: all other assays above

CCOP(=O)(OCC)OC1c2[nH]ccc2-c2cc(C(=O)OC)[nH]c2C1OC (centres undefined)
not listed: A498 renal | HOP-92 NSCLC | NCI-H226 lung | RPMI-8226 leukemia
> 100 µM: all other assays above

CC(C)(C)N1C(=O)N=[N+](/C(=C(\c2ccccc2)n2nc([O-])n(C(C)(C)C)c2=O)c2ccccc2)C1=O
not listed: EKVX NSCLC | HOP-62 NSCLC | HT29 colon | IGROV1 ovarian | MALME-3M melanoma | NCI-H226 lung | NCI/ADR-RES ovarian | OVCAR-8 ovarian | HL-60(TB) leukemia | NCI-H522 lung
> 100 µM: all other assays above
